Results: the supplement of paper PMC10477900
Where a name gives a salt, the structure may show the parent alone.

Key:
HCT116 [1] = conditions: 72 h
Protocol: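 HCT116 control and MTA1-KO (CRISPR) HCT116 cells were seeded in 384-well plates (800 cells/well), treated 16 h later with 237 metabolism-related anticancer drugs at five doses (10 uM, 2 uM, 400 nM, 80 nM, 16 nM) for 72 h, two replicates; viability by CCK8. Values are % inhibition of viability relative to untreated cells, plus fitted IC50.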

HCT116 [2] = assay: viability inhibition vs untreated; higher = more cytotoxic; conditions: 72 h

SMILES	IC50 (HCT116 [1]; genotype: MTA1-KO)	IC50 (HCT116 [1]; genotype: control)	viability inhibition (HCT116 [2]; genotype: MTA1-KO, 16 nM)	viability inhibition (HCT116 [2]; genotype: MTA1-KO, 80 nM)	viability inhibition (HCT116 [2]; genotype: MTA1-KO, 400 nM)	viability inhibition (HCT116 [2]; genotype: MTA1-KO, 2000 nM)	viability inhibition (HCT116 [2]; genotype: MTA1-KO, 10000 nM)	viability inhibition (HCT116 [2]; genotype: control, 16 nM)	viability inhibition (HCT116 [2]; genotype: control, 80 nM)	viability inhibition (HCT116 [2]; genotype: control, 400 nM)	viability inhibition (HCT116 [2]; genotype: control, 2000 nM)	viability inhibition (HCT116 [2]; genotype: control, 10000 nM)
CC(=O)O[C@H]1[C@H]2O[C@]23[C@@H]2CC[C@@H]4C[C@@H](O)CC[C@]4(C)[C@H]2CC[C@]3(C)[C@H]1c1ccc(=O)oc1 [Cinobufagin]	< 0.016 µM	0.0795 µM	51.8%	51.6%	84.4%	88.9%	92.1%	19.9%	58.1%	96.5%	96.5%	94.8%
CCC(C)(Oc1ccc(C2(c3ccc(OC(C)(CC)C(=O)O)cc3)CCCCC2)cc1)C(=O)O (stereo unspecified) [Clinofibrate]	> 10 µM	> 10 µM	12.9%	5.15%	19.9%	28%	51.7%	-13.2%	-10%	-7.17%	-15.8%	0.951%
Nc1nc(Cl)nc2c1ncn2[C@@H]1O[C@H](CO)[C@@H](O)[C@@H]1F [Clofarabine]	0.257 µM	0.141 µM	-2.4%	4.43%	55.5%	80.4%	75.8%	-9.53%	-5%	88.4%	88.9%	92.8%
Clc1ccccc1C(c1ccccc1)(c1ccccc1)n1ccnc1 [Clotrimazole]	> 10 µM	> 10 µM	-16.8%	-16.8%	-15%	-23.3%	-4.67%	0.201%	-0.602%	-4.37%	-8.31%	2.92%
CC(=O)OC(C)(C)/C=C/C(=O)[C@](C)(O)[C@H]1[C@H](O)C[C@@]2(C)[C@@H]3CC=C4[C@@H](C[C@H](O)C(=O)C4(C)C)[C@]3(C)C(=O)C[C@]12C [Cucurbitacin B]	0.34 µM	4.56 µM	-3.8%	-16.3%	58.7%	66.6%	79.9%	-19.7%	-9.21%	33.3%	49.7%	58.9%
COc1cc(/C=C/C(=O)CC(=O)/C=C/c2ccc(O)c(OC)c2)ccc1O [Curcumin]	7.8 µM	7.85 µM	-19.2%	-16.2%	-19.6%	-14.2%	61.7%	-1.96%	7.36%	-4.61%	4.83%	60.8%
Nc1cccc(S(=O)(=O)N2CCCN(S(=O)(=O)c3ccc4c(c3)OCCO4)CC2)c1 [DASA58]	6.95 µM	> 10 µM	-0.728%	-19.4%	-15.8%	-12.1%	75%	-13.2%	-25.9%	-13.7%	-17.4%	-6.72%
Cc1ccc(NC(=O)Nc2cc(-c3ccccc3-c3nn[nH]n3)ccc2N(CC(C)C)CC(C)C)cc1 [DO-IN-2]	> 10 µM	> 10 µM	-2.66%	13.6%	7.91%	10.9%	-6.41%	4.06%	0.568%	-3.13%	-1.86%	41.6%
COc1ccc(Cc2cnc(N)nc2N)cc1OC [Diaveridine]	> 10 µM	> 10 µM	9.72%	-12.4%	-14.2%	-12.8%	8.55%	7.02%	-9.3%	-5.19%	-12.6%	10.2%
CC1=NS(=O)(=O)c2cc(Cl)ccc2N1 [Diazoxide]	> 10 µM	> 10 µM	7.55%	5.32%	16.2%	16%	35.1%	3.13%	23.2%	0.951%	4.98%	3.64%
NS(=O)(=O)c1cc(Cl)c(Cl)c(S(N)(=O)=O)c1 [Dichlorphenamide]	> 10 µM	> 10 µM	6.61%	-0.189%	-0.404%	-3.85%	16.5%	-20.7%	-6.03%	-16.5%	-12.6%	-18.3%
O=c1oc2ccccc2c(O)c1Cc1c(O)c2ccccc2oc1=O [Dicumarol]	0.444 µM	0.54 µM	4.75%	8.83%	21.4%	67.8%	64.3%	10.4%	23.6%	22.5%	66.6%	65.9%
CCN(CC)C(=S)SSC(=S)N(CC)CC [Disulfiram]	> 10 µM	> 10 µM	-26.6%	-25.2%	-25.3%	-20.1%	-18.3%	-6.96%	-11.2%	-6.9%	-8.44%	-2.88%
c1cc(-c2cnn3cc(-c4ccc(OCCN5CCCCC5)cc4)cnc23)ccn1 [Dorsomorphin dihydrochloride]	> 10 µM	8.54 µM	-1.27%	-9.68%	3.35%	4.71%	43.6%	-2.17%	-2.84%	-1.4%	7.12%	55.1%
c1cc(-c2cnn3cc(-c4ccc(OCCN5CCCCC5)cc4)cnc23)ccn1 [Dorsomorphin]	> 10 µM	> 10 µM	1.25%	-13.4%	-12.4%	-11.7%	-1.25%	19.5%	29.9%	18.4%	20.9%	19.6%
CCN[C@H]1C[C@H](C)S(=O)(=O)c2sc(S(N)(=O)=O)cc21 [Dorzolamide hydrochloride]	> 10 µM	> 10 µM	-14.8%	-12.5%	-7.44%	-8.97%	-17.4%	-5.26%	-2.58%	-9.91%	-10%	-10.3%
CC(C)(CCCCCC(O)CCCCCC(C)(C)C(=O)O)C(=O)O [ETC1002]	> 10 µM	> 10 µM	2.14%	-10.3%	-6.64%	-17.1%	-9.91%	10.7%	-0.834%	-5.92%	-6.48%	-5.51%
NCCCC(N)(C(=O)O)C(F)F (stereo unspecified) [Eflornithine hydrochloride Monohydrate]	> 10 µM	9.47 µM	-16.1%	-27.6%	-24%	-21.9%	-20.4%	11.3%	1.76%	-3.16%	0.852%	61.6%
O=c1oc2c(O)c(O)cc3c(=O)oc4c(O)c(O)cc1c4c23 [Ellagic acid]	> 10 µM	> 10 µM	-9.03%	-12.1%	-9.22%	-2.14%	-6.22%	-17.2%	-19%	-17.4%	-13.6%	-11.3%
CC(C)(O)CNc1nc(Nc2ccnc(C(F)(F)F)c2)nc(-c2cccc(C(F)(F)F)n2)n1 [Enasidenib]	> 10 µM	> 10 µM	-26%	-20.5%	-17.3%	-19.3%	-24.8%	-12.3%	-12.7%	-4.75%	-20.9%	-15.6%
Cc1cc(-n2cccc2)c(S(C)(=O)=O)cc1C(=O)N=C(N)N [Eniporide]	6.22 µM	> 10 µM	-5.44%	3.61%	2.87%	16.5%	60.9%	1.06%	-2.91%	-4.47%	3.58%	8.84%
NS(=O)(=O)NCCNc1nonc1C(=Nc1ccc(F)c(Br)c1)NO [Epacadostat]	> 10 µM	> 10 µM	17.9%	-8.61%	-7.79%	-6.79%	6.59%	-9.21%	-6.3%	-14.3%	-5.67%	-5.46%
COc1ccc2[nH]c([S@@+]([O-])Cc3ncc(C)c(OC)c3C)nc2c1 [Esomeprazole Magnesium]	> 10 µM	> 10 µM	2.7%	2.87%	3.11%	1.54%	3.86%	16.3%	11.1%	18%	11.9%	21.2%
COc1ccc2[nH]c([S@@+]([O-])Cc3ncc(C)c(OC)c3C)nc2c1 [Esomeprazole Sodium]	> 10 µM	> 10 µM	3.92%	2.7%	7.98%	6.88%	10.1%	27%	8.16%	-3.32%	4.21%	12%
CO[C@H]1C[C@@H]2CC[C@@H](C)[C@@](O)(O2)C(=O)C(=O)N2CCCC[C@H]2C(=O)O[C@H]([C@H](C)C[C@@H]2CC[C@@H](OCCO)[C@H](OC)C2)CC(=O)[C@H](C)/C=C(\C)[C@@H](O)[C@@H](OC)C(=O)[C@H](C)C[C@H](C)/C=C/C=C/C=C/1C [Everolimus]	> 10 µM	> 10 µM	-19%	-24.2%	-24.2%	-22.2%	-6.06%	5.54%	0.73%	1.76%	3.41%	25.7%
O=C1[C@H](CC[C@H](O)c2ccc(F)cc2)[C@@H](c2ccc(O)cc2)N1c1ccc(F)cc1 [Ezetimibe]	> 10 µM	> 10 µM	-4.11%	3.58%	10.6%	5.65%	0.125%	-7.56%	2.58%	22%	25.8%	31.9%
N#CC(C#N)=NNc1ccc(OC(F)(F)F)cc1 [FCCP]	8.13 µM	9.04 µM	-7.63%	1.48%	-17.8%	-8.82%	87.2%	-7.79%	-5.69%	-13.2%	-7.17%	67%
O=C(O)CCC(=O)c1ccc(-c2ccccc2)cc1 [Fenbufen]	> 10 µM	> 10 µM	-12.7%	-18.9%	-14.3%	3.54%	-0.929%	3.15%	8.7%	7.49%	6.47%	10.4%
